Values joined by “and” are separate entries in the source; they are usually repeats but may differ in a detail not shown here. Identical values can stand only once. Like-named read-outs stand apart in the source and are kept apart here. Numbered stars: 1 amine (or outer) side, 2 acyl side, 3 side chain; on linkers, the order of the positions; unused ones are H or OH. Bridge positions count the residues as written; N and C are the ends. Square brackets hold non-standard residues; d marks the D form. Peptide text beside a SMILES is read from it. * marks the point of attachment. Orn(4R-OH,5R-OCH2CH2NMe3+) = C[N+](C)(C)CCO[C@@H](N[*:3])[C@H](O)C[C@H](N[*:1])C(=O)[*:2]; pTerphenylCO(4''-OnC5H11) = CCCCCOc1ccc(-c2ccc(-c3ccc(C(=O)*)cc3)cc2)cc1; hTyr(3S-OH,4S-OH) = N[C@H](C(=O)O)[C@H](O)[C@@H](O)c1ccc(O)cc1; Pro(3S-OH,4S-Me) = C[C@H]1CN[C@H](C(=O)O)[C@H]1O; Hyp = O=C(O)[C@@H]1C[C@@H](O)CN1
Experiments:
[1] = Simulated free-drug plasma concentration-time profiles of the fractionated regimens; parameters: species or system mouse; conditions: mice
Experimental: (§1) Simulated free-drug plasma concentration-time profiles of the three fractionated CD101 2 mg/kg dosing regimens are shown in Fig. 4.
(§2) Data collected from the pharmacokinetic study described above were used to develop a pharmacokinetic model describing the disposition of CD101 in mice in S-ADAPT ([21]). The developed pharmacokinetic model, along with the unbound CD101 fraction, was used to simulate free-drug concentration-time profiles for each dosing regimen administered in the front-loaded dose studies. Free-drug AUC0–168 values were calculated through numeric integration of CD101 free-drug concentration-time profiles. Relationships between changes in log10 CFU at 168 h and free-drug AUC0–168/MIC ratios were explored.

[2] = Single-dose i.p. pharmacokinetic study in mice, plasma, four-compartment model; format: in vivo, ICR mice; conditions: for maximum plasma concentration: female ICR mice, at first sampling (1 h), LC-MS/MS
Experimental: A four-compartment model best described the disposition of this agent in murine plasma. […] The coefficient of determination (r^2) for the model-predicted concentrations versus observed concentrations was 0.97. […] All model parameters were estimated with excellent precision, as indicated by a standard error of the mean (SEM) of less than 20% for 7 of 8 of the model parameters.
Healthy female ICR mice weighing 20 to 24 g were administered a single dose of CD101 via intraperitoneal (i.p.) injection. Doses of 1, 4, and 16 mg/kg of body weight were studied, utilizing 3 animals per dose level. Whole-blood samples (one sample per animal) were collected at 1, 3, 6, 12, 24, 48, 72, and 96 h postdose. Plasma was collected by centrifugation, and samples were stored at −20°C or below. Samples were analyzed using liquid chromatography with tandem mass spectrometry detection and an AB-SCIEX API 4000 mass spectrometry system. The method used in the analysis was qualified as fit for the purpose: calibration standards were matrix matched, and, for each analytical batch, triplicate calibration standards were included at the beginning of the batch, approximately in the middle, and at the end. Following analysis, quantitation is carried out by a calibration curve comprising analyte/internal standard area ratio versus concentration. Calibration standards ranged from 0.5 mg/liter (lower limit of quantitation [LLOQ]) to 100 mg/liter. Analytical batch acceptance followed the general guidance criterion that standards/quality control should be within ±20% for accuracy (percent nominal concentration) and ≤20% for precision (percent coefficient of variation). For analysis, plasma samples were quenched with acetonitrile (4:1 acetonitrile/plasma ratio) containing diclofenac as the internal standard. Animals were maintained in accordance with the criteria of the American Association for Assessment and Accreditation of Laboratory Animal Care (AAALAC). The pharmacokinetic study was approved by the Animal Research Committee of the William S. Middleton Memorial Veterans Affairs Hospital and the University of Wisconsin.
as §2

[3] = cited from earlier work
[4] = test system: hepatocytes of Sprague-Dawdley rats; conditions: supratherapeutic (comparable) doses, 2-week repeated-dose study; cited from earlier work
Excerpt: The echinocandin CD101 is a novel antifungal agent with activity against Aspergillus and Candida species, including azole- and echinocandin-resistant isolates ([1], [2]). This compound is a structural analog of anidulafungin but differs in certain beneficial ways with regard to toxicological and pharmacokinetic properties.

[5] = Observation for overt toxicity in mice of the front-loaded dose studies; format: in vivo, ICR mice; conditions: any of the mice evaluated
Experimental: as §1
A neutropenic, murine, disseminated candidiasis model was used for the evaluation of the effects of the CD101 dosing regimens on efficacy. Male or female ICR mice (n = 5 per regimen and observation time) weighing 22 ± 2 g were rendered neutropenic by treatments using the injection of cyclophosphamide 4 days prior to infection (day −4) and 1 day prior to infection (day −1) at 150 and 100 mg/kg i.p., respectively. Neutropenia was sustained for the duration of the study with cyclophosphamide doses (100 mg/kg i.p.) administered every 48 h on days 1, 3, 5, and 7 after infection. Each animal was inoculated, using a lateral tail vein injection, with 1 × 10^3 CFU of Candida albicans (isolate R303). CD101 (or vehicle) was administered 24 h postinfection via i.p. injection. Mice were euthanized with CO2 at 168 h (7 days) following the start of treatment. Mice in the control group were euthanized 0, 24, and 48 h after administration of vehicle. Paired kidneys were aseptically harvested and homogenized, and serial dilutions were plated for colony counts to determine the fungal burden (measured in CFU per gram). Kidney counts were not determined in animals that expired prior to the scheduled sacrifice time. […]

Candida albicans R303 [6] = assay: Front-loaded dose studies, neutropenic murine disseminated candidiasis model; format: in vivo, ICR mice
Experimental: Fungi in the no-treatment control group grew well and reached a density of greater than 1 × 10^6 CFU/g by 48 h. The magnitudes of net change in log10 CFU from the baseline at 168 h were similar regardless of the fractionation schedule within the CD101 0.7 mg/kg and 7 mg/kg dosing groups. […] In the 7 mg/kg dose group, the magnitude of net change was greater than 2 log10 CFU reduction from the baseline at 168 h, regardless of the fractionation schedule. Conversely, results within the CD101 2 mg/kg group differed across the fractionation schedules. […] However, when this dose was front-loaded (i.e., delivered entirely on day 1), there was a greater than 2 log10 CFU reduction from the baseline at 168 h.
A neutropenic, murine, disseminated candidiasis model was used for the evaluation of the effects of the CD101 dosing regimens on efficacy. Male or female ICR mice (n = 5 per regimen and observation time) weighing 22 ± 2 g were rendered neutropenic by treatments using the injection of cyclophosphamide 4 days prior to infection (day −4) and 1 day prior to infection (day −1) at 150 and 100 mg/kg i.p., respectively. Neutropenia was sustained for the duration of the study with cyclophosphamide doses (100 mg/kg i.p.) administered every 48 h on days 1, 3, 5, and 7 after infection. Each animal was inoculated, using a lateral tail vein injection, with 1 × 10^3 CFU of Candida albicans (isolate R303). CD101 (or vehicle) was administered 24 h postinfection via i.p. injection. Mice were euthanized with CO2 at 168 h (7 days) following the start of treatment. Mice in the control group were euthanized 0, 24, and 48 h after administration of vehicle. Paired kidneys were aseptically harvested and homogenized, and serial dilutions were plated for colony counts to determine the fungal burden (measured in CFU per gram). Kidney counts were not determined in animals that expired prior to the scheduled sacrifice time. The front-loaded dose studies was performed under animal biosafety level 2 conditions in an Association for Assessment and Accreditation of Laboratory Animal Care-accredited vivarium, at Eurofins Panlabs Taiwan, Ltd., with the oversight of veterinarians to ensure compliance with the Eurofins Panlabs Institutional Animal Care and Use Committee regulations and the humane treatment of laboratory animals.

Candida albicans R303 [7] = assay: Broth microdilution susceptibility testing (CLSI M27-A3); format: cell-based; conditions: C. albicans R303, CLSI M27-A3, RPMI 1640, 35°C, read at 24 h, ~50% growth inhibition, modal value of three occasions
Experimental: CD101 was supplied by Cidara Therapeutics, Inc. (San Diego, CA). Stock solutions of CD101 were prepared in dimethyl sulfoxide (DMSO) for the susceptibility testing. The vehicle used for dosing in the in vivo studies was 10% DMSO–1% Tween 20–saline solution. The challenge isolate utilized in these studies was Candida albicans R303. Susceptibility testing was done in accordance with the Clinical and Laboratory Standards Institute (CLSI) M27-A3 methods, using RPMI 1640 medium, an initial inoculum of 0.5 × 10^3 to 2.5 × 10^3 CFU/ml, and incubation at 35°C ([20]). MIC plates were read following 24 h of incubation, and MIC values are reported as concentrations resulting in prominent (∼50%) growth inhibition. Susceptibility testing was performed on three separate occasions. Final results were expressed as modal values. Quality control was performed on each day of testing using CLSI-recommended reference strains (C. krusei ATCC 6258 and C. parapsilosis ATCC 22019).

[8] = four-compartment model, murine plasma, 1-16 mg/kg i.p.

Molecule: CCCCCOc1ccc(-c2ccc(-c3ccc(C(=O)N[C@H]4C[C@@H](O)[C@@H](OCC[N+](C)(C)C)NC(=O)[C@@H]5[C@@H](O)[C@@H](C)CN5C(=O)[C@H]([C@@H](C)O)NC(=O)[C@H]([C@H](O)[C@@H](O)c5ccc(O)cc5)NC(=O)[C@@H]5C[C@@H](O)CN5C(=O)[C@H]([C@@H](C)O)NC4=O)cc3)cc2)cc1 [CD101] ({pTerphenylCO(4''-OnC5H11)}-[Orn(4R-OH,5R-OCH2CH2NMe3+)]T[Hyp][hTyr(3S-OH,4S-OH)]T[Pro(3S-OH,4S-Me)]; lactam 1-C)
- free-drug AUC0-24 of single-dose regimen relative to daily regimen ([1]; 2 mg/kg total dose): 7 fold
- AUC0-168 of daily 1 mg/kg regimen relative to 2 mg/kg front-loaded regimen [1]: approximately 3 fold
- maximum plasma concentration ([2]; 1 mg/kg i.p. single dose): 3.97 mg/L
- maximum plasma concentration ([2]; 4 mg/kg i.p. single dose): 13.6 mg/L
- maximum plasma concentration ([2]; 16 mg/kg i.p. single dose): 52.0 mg/L
- pharmacokinetics over the studied dose range ([2]; 1 to 16 mg/kg i.p., mice): linear pharmacokinetics
- Q2 (distributional clearance), final estimate [2, 8]: 0.255 mL/min/kg
- Q3 (distributional clearance), final estimate [2, 8]: 5.2 mL/min/kg
- Q4 (distributional clearance), final estimate [2, 8]: 1.2 mL/min/kg
- V1 (central compartment volume), final estimate [2, 8]: 0.201 L/kg
- V2 (peripheral compartment volume), final estimate [2, 8]: 0.871 L/kg
- V3 (peripheral compartment volume), final estimate [2, 8]: 0.0341 L/kg
- V4 (peripheral compartment volume), final estimate [2, 8]: 0.165 L/kg
- CL/F ([2]; mouse, in vivo, ip, four-compartment model, murine plasma, 1-16 mg/kg i.p., read-out: CLt (total clearance), final estimate (converted)): 0.173 mL/min/kg
- terminal half-life ([3]; humans, healthy volunteers): ~133 h
- hepatocyte findings [4]: no changes were observed
- overt signs of toxicities [5]: No overt signs of toxicities
- log10 CFU reduction from the baseline at 168 h (Candida albicans R303 [6]; total 2 mg/kg as single dose (2 mg/kg x 1), kidney burden, neutropenic ICR mice, n = 5): > 2 log10 CFU and 2 log10 CFU
- log10 CFU increase from the baseline at 168 h (Candida albicans R303 [6]; total 2 mg/kg daily (0.29 mg/kg/day x 7), kidney burden, neutropenic ICR mice, n = 5): > 1 log10 CFU and 1 log10 CFU
- net change in log10 CFU from the baseline at 168 h (Candida albicans R303 [6]; total 2 mg/kg twice weekly (1 mg/kg x 2), kidney burden, neutropenic ICR mice, n = 5): net fungal stasis
- log10 CFU reduction from the baseline at 168 h (Candida albicans R303 [6]; total 7 mg/kg i.p., regardless of the fractionation schedule): greater than 2 log10 CFU
- modal MIC (Candida albicans R303 [7]): 0.125 µg/mL

Molecule: anidulafungin [reference compound]
- hepatocyte findings [4]: hepatocellular necrosis ranging from mild to moderate

Molecule: oritavancin [reference compound]
- terminal half-life [3]: ~245 h

Source: PMC5655053, “Pharmacological Basis of CD101 Efficacy: Exposure Shape Matters” (Antimicrobial Agents and Chemotherapy, 2017)
